# Laboratory results taken from patent US20230286946A1, “DIFLUOROMETHYL-PYRIDIN-2-YL TRIAZOLES” (Boehringer Ingelheim International GmbH, priority 2020, published 2023).
# Where two headings read alike, the source gives them in different places.
# Tests used:
# [1] = target: T1, human GABAA α5β3γ2s receptor (Homo sapiens, UniProt P18507+P31644); assay: Assay A: in vitro inhibition of 3H-flumazenil binding, HEK cells expressing the human GABAA α5β3γ2s receptor
# T1 sequence (P18507 1-475): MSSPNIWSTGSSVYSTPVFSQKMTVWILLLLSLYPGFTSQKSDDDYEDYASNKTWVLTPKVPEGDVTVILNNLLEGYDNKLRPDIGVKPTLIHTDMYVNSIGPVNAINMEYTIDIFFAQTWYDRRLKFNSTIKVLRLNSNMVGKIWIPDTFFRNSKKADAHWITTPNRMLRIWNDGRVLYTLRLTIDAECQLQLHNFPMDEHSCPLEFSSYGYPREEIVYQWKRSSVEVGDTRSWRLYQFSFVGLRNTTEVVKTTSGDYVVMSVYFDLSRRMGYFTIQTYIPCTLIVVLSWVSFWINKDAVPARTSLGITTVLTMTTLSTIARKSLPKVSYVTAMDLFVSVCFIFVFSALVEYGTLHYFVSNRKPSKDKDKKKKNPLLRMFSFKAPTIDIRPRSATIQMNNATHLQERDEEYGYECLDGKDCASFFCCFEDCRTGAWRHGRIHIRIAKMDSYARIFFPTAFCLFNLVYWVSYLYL
# T1 sequence (P31644 1-462): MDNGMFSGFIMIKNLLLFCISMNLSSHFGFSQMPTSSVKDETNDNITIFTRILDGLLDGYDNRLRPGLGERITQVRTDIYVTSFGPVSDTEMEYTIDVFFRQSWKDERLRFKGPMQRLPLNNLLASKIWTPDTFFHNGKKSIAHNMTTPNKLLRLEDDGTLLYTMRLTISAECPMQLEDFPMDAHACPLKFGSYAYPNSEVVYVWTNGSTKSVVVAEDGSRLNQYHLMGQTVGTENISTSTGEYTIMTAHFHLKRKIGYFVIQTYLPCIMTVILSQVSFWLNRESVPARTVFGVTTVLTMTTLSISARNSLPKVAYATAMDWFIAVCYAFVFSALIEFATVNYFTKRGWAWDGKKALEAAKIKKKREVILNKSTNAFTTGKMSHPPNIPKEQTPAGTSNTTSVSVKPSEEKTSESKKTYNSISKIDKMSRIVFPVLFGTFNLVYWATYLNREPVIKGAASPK
# Method: Cell Cultures and Membrane Preparation
# HEK-293 cell lines with stable expression of recombinant human GABAA α5ß3 γ2s receptors (plasmid H46/E9/B10) are seeded in T175 polystyrene flasks or roller bottles (1700 cm^2, Fisher Scientific CCI-431191), and cultured (37° C., 5% CO2) in Dulbecco's Modified Eagle Medium (DMEM) with GlutaMAX™ supplemented with 10% fetal bovine serum and one or both of the following antibiotics: hygromycin B ([…]; γ2 subunit) or G418 (0.5 mg/ml; […]).
# When the cultures reach confluency, the DMEM is removed and the cells are washed (10 ml for T175 flasks; 50 ml for roller bottles) once in Dulbecco's Phosphate Buffered Saline (DPBS). Following addition of DPBS to the cultures (10 ml for T175 flasks; 100 ml for roller bottles) for approximately 5 min cells are easily detached from the surface by shaking or tapping the flask gently. The cell suspension is transferred to Falcon tubes and centrifuged at 23,500×g for 10 min at 2° C. The pellet is washed once in 15 ml Tris-citrate buffer (50 mM, pH 7.1) using an Ultra-Turrax homogenizer and centrifuged at 2° C. for 10 min at 27,000×g. The washed pellet is re-suspended in 15 ml Tris-citrate buffer and frozen at −80° C. until the day of the binding experiment.
# On the day of the experiment the cell membrane preparation is thawed and centrifuged at 2° C. for 10 min at 27,000×g. The pellet is re-suspended, using an Ultra-Turrax homogenizer in Tris-citrate buffer, to 15-50 µg protein per assay and then used for binding assays.
# Non-specific binding is determined using clonazepam ([…]).
# All dilutions of test compounds and incubation of assay are performed in glass vials/96-vial plates. […] Compounds are dissolved in 100% DMSO (10 mM stock), diluted in 48% ethanol-water, and tested in triplicate in serial 1:3 or 1:10 dilutions. When screening large numbers of compounds only one concentration of each compound is tested in single wells. Reference compounds are not included routinely, but for each experiment performed total and nonspecific binding is compared to data obtained during validation of the assay.
# Binding is either terminated by rapid filtration onto
# 1) Whatman GF/C glass fibre filters using a Brandel Cell harvester, followed by 5 washes with 1 ml ice-cold buffer or onto 2) UniFilter GF/C glass fibre filter plates using a Tomtec cell harvester, followed by washing with approximately 5 ml ice-cold buffer.
# The amount of radioactivity on the filters is determined by conventional liquid scintillation counting using a
# 1) Tri-Garb™ counter (PerkinElmer Life and Analytical Sciences) for separate large filters or
# 2) Topcount™ counter (PerkinElmer Life and Analytical Sciences) for 96-well filter plates.
# Specific binding is total binding minus non-specific binding.
# The IC50 value for a test compound is determined based on the equation: […]
# where B is the binding in percentage of total specific binding; C is the concentration of test compound; and n is the Hill coefficient. For screening purposes n is set to 1. The IC50 value is calculated from the concentration response curves by the non-linear regression method using the curve-fitting program GraphPad Prism.
# The Ki value for a test compound can be calculated from the IC50 value using the equation by Cheng and Prusoff: […]
# [2] = Metabolic stability in human liver microsomes (Human MST); format: in vitro ADME; settings: pH 7.6, pooled human liver microsomes, 37° C., read-out: Human MST t½
# Method: Assessment of Metabolic Stability in Human Liver Microsomes (Human MST) The metabolic stability of the compounds according to the invention may be investigated as follows: The metabolic degradation of the test compound is assayed at 37° C. with pooled human liver microsomes. The final incubation volume of 100 μL per time point contains TRIS buffer pH 7.6 at room temperature (0.1 M), MgCl2 (5 mM), microsomal protein (1 mg/mL) and the test compound at a final concentration of 1 μM. Following a short pre-incubation period at 37° C., the reactions are initiated by addition of beta-nicotinamide adenine dinucleotide phosphate, reduced form (NADPH, 1 mM), and terminated by transferring an aliquot into solvent after different time points. After centrifugation (10000 g, 5 min), an aliquot of the supernatant is assayed by LCMS/MS for the amount of parent compound. The half-life (t1/2) is determined by the slope of the semi-logarithmic plot of the concentration-time profile.
# [3] = read-out: Assay A: GABAA α 5 β 3 γ 2s Ki
# [4] = compounds of the present invention, read-out: Assay A: GABAA α5 β3 γ2S Ki
"Ki [1, 3]",half-life at 1 μM [2],"Ki [1, 4]",Structure (SMILES)
24 nM,1.63 h,–,Cc1c(-c2ccc(OCc3c(-c4ccc(C(F)F)cn4)nnn3C)nn2)cnn1C [Example 33]
49 nM,> 2.17 h,–,Cn1nnc(-c2ccc(C(F)F)cn2)c1COc1ccc(-c2cnc3nonc3c2)nn1 [Example 35]
11 nM,2.15 h,–,Cc1nnn(-c2ccc(C(F)F)cn2)c1COc1ccc(-n2cc(C#N)cn2)nn1 [Example 37]
12 nM,–,–,Cc1nnn(-c2ccc(C(F)F)cn2)c1COc1ccc(-n2ncnc2C)nn1 [Example 38]
39 nM,> 2.17 h,–,Cn1nnc(-c2ccc(C(F)F)cn2)c1COc1ccc(-c2cnccn2)nn1 [Example 39]
14 nM,–,0.014 nM,"Cc1nnn(-c2ccc(C(F)F)cn2)c1COc1ccc(-n2cnc(C#N)c2)nn1 [Example 42, 1-[6-({1-[5-(difluoromethyl)pyridin-2-yl]-4-methyl-1H-1,2,3-triazol-5-yl}methoxy)pyridazin-3-yl]-1H-imidazole-4-carbonitrile]"
28 nM,–,–,Cc1nnn(-c2ccc(C(F)F)cn2)c1COc1ccc(-n2nccn2)nn1 [Example 43]
82 nM,> 2.17 h,–,"Cc1ncnn1-c1ccc(OCc2c(-c3ccc(C(F)F)cn3)nnn2C)nn1 [Example 48, 3-({4-[5-(difluoromethyl)pyridin-2-yl]-1-methyl-1H-1,2,3-triazol-5-yl}methoxy)-6-(5-methyl-1H-1,2,4-triazol-1-yl)pyridazine]"
25 nM,> 2.17 h,–,Cn1nnc(-c2ccc(C(F)F)cn2)c1COc1ccc(-n2cc(C#N)cn2)nn1 [Example 49]
22 nM,2.17 h,–,Cn1nnc(-c2ccc(C(F)F)cn2)c1COc1ccc(-n2cccn2)nn1 [Example 50]
35 nM,> 2.17 h,–,Cn1nnc(-c2ccc(C(F)F)cn2)c1COc1ccc(-n2cnc(C#N)c2)nn1 [Example 52]

# The next lines start with the compound.
Structure (SMILES),"Ki [1, 3]",half-life at 1 μM [2],"Ki [1, 4]"
"Cc1nnn(-c2ccc(C(F)F)cn2)c1COc1ccc(-c2ccc(=O)n(C)c2)nn1 [Example 1, 5-[6-({1-[5-(difluoromethyl)pyridin-2-yl]-4-methyl-1H-1,2,3-triazol-5-yl}methoxy)pyridazin-3-yl]-1-methyl-1,2-dihydropyridin-2-one]",10 nM,> 2.17 h,–
Cc1nnn(-c2ccc(C(F)F)cn2)c1COc1ccc(-c2cnc(N)nc2)nn1 [Example 2],15 nM,–,–
Cc1cc(-c2ccc(OCc3c(C)nnn3-c3ccc(C(F)F)cn3)nn2)cnn1 [Example 3],13 nM,> 2.17 h,–
Cc1nnn(-c2ccc(C(F)F)cn2)c1COc1ccc(-c2cn[nH]c2)nn1 [Example 4],17 nM,0.667 h,–
Cc1nnn(-c2ccc(C(F)F)cn2)c1COc1ccc(-c2cc[nH]n2)nn1 [Example 5],16 nM,1.38 h,16 nM
Cc1nnn(-c2ccc(C(F)F)cn2)c1COc1ccc(-c2cccc(C(N)=O)c2)nn1 [Example 6],15 nM,1.93 h,–
Cc1nnn(-c2ccc(C(F)F)cn2)c1COc1ccc(-c2cnn(CC#N)c2)nn1 [Example 7],26 nM,> 2.17 h,–
Cc1nnn(-c2ccc(C(F)F)cn2)c1COc1ccc(-c2ccc(C#N)nc2)nn1 [Example 8],18 nM,> 2.17 h,–
Cc1nnn(-c2ccc(C(F)F)cn2)c1COc1ccc(-c2ccc(C#N)s2)nn1 [Example 12],19 nM,–,–
CNc1cccc(-c2ccc(OCc3c(C)nnn3-c3ccc(C(F)F)cn3)nn2)n1 [Example 14],33 nM,–,–
Cc1n[nH]c(C)c1-c1ccc(OCc2c(C)nnn2-c2ccc(C(F)F)cn2)nn1 [Example 15],40 nM,–,–
Cc1nnn(-c2ccc(C(F)F)cn2)c1COc1ccc(-c2ccc(S(C)(=O)=O)nc2)nn1 [Example 16],21 nM,–,–
Cc1nnn(-c2ccc(C(F)F)cn2)c1COc1ccc(-c2ccnnc2)nn1 [Example 17],16 nM,> 2.17 h,–
Cc1ncc(-c2ccc(OCc3c(C)nnn3-c3ccc(C(F)F)cn3)nn2)o1 [Example 18],14 nM,> 2.17 h,–
Cc1nnn(-c2ccc(C(F)F)cn2)c1COc1ccc(-c2ccc(N)nc2)nn1 [Example 19],17 nM,–,–
Cc1nnn(-c2ccc(C(F)F)cn2)c1COc1ccc(-c2c[nH]c(=O)c(F)c2)nn1 [Example 20],16 nM,> 2.17 h,–
CCn1cc(-c2ccc(OCc3c(-c4ccc(C(F)F)cn4)nnn3C)nn2)cn1 [Example 22],19 nM,> 2.17 h,–
Cn1nnc(-c2ccc(C(F)F)cn2)c1COc1ccc(-c2ccc(S(C)(=O)=O)nc2)nn1 [Example 23],49 nM,> 2.17 h,–
Cn1nnc(-c2ccc(C(F)F)cn2)c1COc1ccc(-c2cn[nH]c2)nn1 [Example 24],32 nM,1.03 h,–
Cn1nnc(-c2ccc(C(F)F)cn2)c1COc1ccc(-c2ccc(N)nc2)nn1 [Example 25],23 nM,> 2.17 h,–
Cn1nnc(-c2ccc(C(F)F)cn2)c1COc1ccc(-c2cccc(C(N)=O)c2)nn1 [Example 28],24 nM,> 2.17 h,–
Cc1c(-c2ccc(OCc3c(-c4ccc(C(F)F)cn4)nnn3C)nn2)cc(C#N)n1C [Example 29],19 nM,1.62 h,–
Cc1nn(C)cc1-c1ccc(OCc2c(-c3ccc(C(F)F)cn3)nnn2C)nn1 [Example 30],24 nM,> 2.17 h,–
COc1ncc(-c2ccc(OCc3c(-c4ccc(C(F)F)cn4)nnn3C)nn2)cn1 [Example 31],23 nM,2.12 h,–
Cn1nnc(-c2ccc(C(F)F)cn2)c1COc1ccc(-c2cnn(C3CCC3)c2)nn1 [Example 32],18 nM,1.3 h,–
